{
  "source": "patent US6525022B1",
  "about": "“Receptor specific atrial natriuretic peptides” (Genentech, Inc., priority 1993, dated 2003)",
  "key": {"[1]": {"molecular_target": "T1, hNPR-C (Homo sapiens, UniProt P17342)", "T1 sequence (P17342 27-541)": "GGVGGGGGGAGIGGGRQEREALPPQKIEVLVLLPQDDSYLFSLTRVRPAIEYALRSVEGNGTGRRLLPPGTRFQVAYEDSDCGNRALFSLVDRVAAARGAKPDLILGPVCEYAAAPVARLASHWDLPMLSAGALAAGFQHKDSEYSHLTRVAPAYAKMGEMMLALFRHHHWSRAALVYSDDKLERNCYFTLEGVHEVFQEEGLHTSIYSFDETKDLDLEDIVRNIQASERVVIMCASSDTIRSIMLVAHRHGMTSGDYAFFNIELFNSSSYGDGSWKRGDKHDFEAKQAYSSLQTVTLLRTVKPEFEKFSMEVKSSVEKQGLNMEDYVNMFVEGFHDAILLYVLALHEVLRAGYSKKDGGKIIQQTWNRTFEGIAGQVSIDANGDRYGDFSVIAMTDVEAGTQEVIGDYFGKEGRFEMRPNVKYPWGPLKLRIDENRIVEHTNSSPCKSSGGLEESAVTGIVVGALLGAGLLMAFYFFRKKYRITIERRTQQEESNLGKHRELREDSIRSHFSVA", "assay": "Competition binding to hNPR-C (Table I, FIG. 5)"}, "[2]": {"molecular_target": "T2, hNPR-A (Homo sapiens, UniProt P16066)", "T2 sequence (P16066 33-1061)": "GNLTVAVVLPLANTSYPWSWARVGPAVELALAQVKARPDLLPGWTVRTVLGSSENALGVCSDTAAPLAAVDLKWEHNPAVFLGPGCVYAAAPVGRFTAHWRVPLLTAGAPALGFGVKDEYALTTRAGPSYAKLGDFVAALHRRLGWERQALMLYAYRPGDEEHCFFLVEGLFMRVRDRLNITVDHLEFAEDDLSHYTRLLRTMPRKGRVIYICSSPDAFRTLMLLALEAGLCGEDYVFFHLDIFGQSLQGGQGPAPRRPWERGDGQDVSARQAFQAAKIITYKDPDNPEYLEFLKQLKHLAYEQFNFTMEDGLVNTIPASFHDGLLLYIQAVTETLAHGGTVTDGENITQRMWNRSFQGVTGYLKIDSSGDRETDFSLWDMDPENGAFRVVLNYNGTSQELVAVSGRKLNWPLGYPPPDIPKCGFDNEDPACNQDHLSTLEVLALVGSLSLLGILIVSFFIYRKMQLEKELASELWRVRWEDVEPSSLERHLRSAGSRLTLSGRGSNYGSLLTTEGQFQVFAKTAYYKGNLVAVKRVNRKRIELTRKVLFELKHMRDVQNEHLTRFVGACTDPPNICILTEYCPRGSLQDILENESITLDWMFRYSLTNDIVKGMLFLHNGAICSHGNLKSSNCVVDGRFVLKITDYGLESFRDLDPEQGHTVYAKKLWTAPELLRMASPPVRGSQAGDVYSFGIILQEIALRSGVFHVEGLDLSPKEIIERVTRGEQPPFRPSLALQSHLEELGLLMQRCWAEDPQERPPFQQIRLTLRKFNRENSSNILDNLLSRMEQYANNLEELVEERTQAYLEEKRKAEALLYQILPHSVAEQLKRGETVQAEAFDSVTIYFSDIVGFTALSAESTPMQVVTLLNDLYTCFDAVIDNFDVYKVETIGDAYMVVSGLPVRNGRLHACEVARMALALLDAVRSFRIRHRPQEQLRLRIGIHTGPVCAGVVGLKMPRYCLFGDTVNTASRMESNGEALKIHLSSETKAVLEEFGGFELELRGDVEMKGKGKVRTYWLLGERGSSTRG", "assay": "Competition binding to hNPR-A (Table I, FIG. 5)"}},
  "note": "Where a SMILES comes first, the peptide text is derived from it. Bridges are numbered along the chain shown (N, C = ends).",
  "data": [
    {"molecule": "CC[C@H](C)[C@@H]1NC(=O)[C@H](CCCNC(=N)N)NC(=O)[C@H](CC(=O)O)NC(=O)[C@H]([C@@H](C)CC)NC(=O)[C@H](CO)NC(=O)CNC(=O)[C@H]([C@@H](C)O)NC(=O)[C@H](Cc2ccccc2)NC(=O)[C@@H](NC(=O)[C@H](CO)NC(=O)[C@H](CO)NC(=O)[C@H](CCCNC(=N)N)NC(=O)[C@H](CCCNC(=N)N)NC(=O)[C@H](CC(C)C)NC(=O)[C@H](CO)NC(=O)[C@H](CCCNC(=N)N)NC(=O)[C@@H]2CCCN2C(=O)[C@H](C)NC(=O)[C@@H](N)[C@@H](C)O)CSSC[C@@H](C(=O)N[C@@H](CC(N)=O)C(=O)N[C@@H](CO)C(=O)N[C@@H](Cc2ccccc2)C(=O)N[C@@H](CCCNC(=N)N)C(=O)N[C@@H](Cc2ccc(O)cc2)C(=O)O)NC(=O)CNC(=O)[C@H](CC(C)C)NC(=O)CNC(=O)[C@H](CO)NC(=O)[C@H](CCC(N)=O)NC(=O)[C@H](C)NC(=O)[C@H](CCCNC(=N)N)NC1=O", "note": "[ANF 76] (H-TAPRSLRRSSCFTGSIDRIRAQSGLGCNSFRY-OH; disulfide 11-27; C-terminus assumed)", "values": [
      {"measurement": "IC50", "setting": "[1]", "value": 10, "unit": "µM"},
      {"measurement": "IC50", "setting": "[2]", "value": 8.9, "unit": "pM"}
    ]}
  ]
}
